According to article PMC7922564, “Molecular Insights into an Antibiotic Enhancer Action of New Morpholine-Containing 5-Arylideneimidazolones in the Fight against MDR Bacteria” (International Journal of Molecular Sciences, 2021):
Like-named read-outs stand apart in the source and are kept apart here.

Assays:
S. aureus R45-CC45 = experiment: MIC of compounds, S. aureus R45-CC45; type: cell-based; details: Staphylococcus aureus, read-out: MIC value of compounds
Procedure: (§1) Compounds 14–16 were tested further for their adjuvant-like effect with a set of ten additional S. aureus isolates. Firstly, MIC values of the molecules were evaluated in two clinical MSSA isolates (MM-O058, MM-N072), seven MRSA (USA300 LAC, 5328, LG-N017, MM-O021, R45-CC45, R46-CC22, COL) and one VISA strain (Mu50). Detailed results are presented in the Supplementary section (Table S3).
(§2) Determination of MIC values, i.e., intrinsic antibacterial activity, of products and antibiotics (oxacillin, ampicillin, vancomycin, ciprofloxacin, and erythromycin) in the presence and absence of compounds tested was conducted by the use of a standard 2-fold microdilution method in cation-adjusted Mueller Hinton broth following the Clinical and Laboratory Standards Institute (CLSI) guidelines. The MIC values were detected using an Infinite M200 pro Tecan microplate reader (Tecan® France, SA-Lyon, France). MIC determinations were conducted in 96-well microtiter plates and repeated 3–4 times.
(§3) Initially, MICs of a series of imidazolone derivatives were assessed against susceptible (reference) and MDR strains of staphylococci. Next, MIC values of the aforementioned antibiotics were determined in the absence and presence of imidazolone derivatives to assess the chemosensitizing effect of these compounds. […] 5-arylideneimidazolones and 5-arylidenethiazolones, which precipitated after addition to bacterial suspension in MH II medium, were tested at the highest concentrations at which precipitation was not observed. […] Antibacterial activity of compounds and antibiotics ampicillin, vancomycin, ciprofloxacin, and erythromycin was recorded as the lowest concentration of molecules able to inhibit bacterial growth after 18 h incubation at 37 °C. […] The results are presented as activity gain (A) parameter which was calculated as ratio of MIC of a certain antibiotic (MICAnt) to its MICAnt+Comp, observed in combination with a tested compound (7, 12–16, 19, or 20; Equation (1)). […]

S. aureus USA300 LAC = experiment: MIC reduction assay (antibiotic adjuvant), S. aureus USA300 LAC; type: cell-based, Staphylococcus aureus; set-up: key: A = MIC of antibiotic alone / MIC with compound
From the text: (§4) The adjuvant properties of compounds 14–16 in S. aureus clinical isolates were next tested in combination with oxacillin and the penicillinase-susceptible β-lactam antibiotic, ampicillin. The second β-lactam antibiotic was chosen based on its vulnerability to enzymatic hydrolysis, another important resistance mechanism in S. aureus against penicillin. Therefore, the results of the MIC reduction assay obtained on the activity of arylideneimidazolones combined with oxacillin and ampicillin, respectively, might provide further insights into the possible mechanism of action of the compounds. Complete results are presented in Supplementary (Tables S4 and S5), while condensed in Figure 6, in the case of desired activity noted. […] One possible explanation for the lack of adjuvant activity of compounds in some of the strains selected for this study might be that these strains express PBP2a only when induced by the antibiotic, while others, for which potentiating activity of compounds was observed, produce this protein in high levels straight away.
as §2
(§5) Initially, MICs of a series of imidazolone derivatives were assessed against susceptible (reference) and MDR strains of staphylococci. Next, MIC values of the aforementioned antibiotics were determined in the absence and presence of imidazolone derivatives to assess the chemosensitizing effect of these compounds. […] 5-arylideneimidazolones and 5-arylidenethiazolones, which precipitated after addition to bacterial suspension in MH II medium, were tested at the highest concentrations at which precipitation was not observed. […] Antibacterial activity of compounds and antibiotics ampicillin, vancomycin, ciprofloxacin, and erythromycin was recorded as the lowest concentration of molecules able to inhibit bacterial growth after 18 h incubation at 37 °C. The incubation of bacterial strains exposed to oxacillin paired with compounds tested was conducted at 35 °C and extended to 24 h due to frequent occurrence of heterogeneity among MRSA strains. The results are presented as activity gain (A) parameter which was calculated as ratio of MIC of a certain antibiotic (MICAnt) to its MICAnt+Comp, observed in combination with a tested compound (7, 12–16, 19, or 20; Equation (1)). (1) A=(MICAnt/MICAnt+Comp)

[1] = test system: AcrAB-TolC efflux pump in K. aerogenes strain Ea-289; experiment: Real-time efflux (RTE) assay, 1,2'-dNA extrusion; type: cell-based, Klebsiella aerogenes; details: compound 100 µM; IE=100% total inhibition of efflux
Procedure: Compounds 7, 12–16, 19, and 20 were also assessed for their EPI property in K. aerogenes strain Ea-289 with the use of a real-time efflux (RTE) assay. Results for compounds 16 and 20 were previously described. The experiment is based on the measurement of the extrusion of a fluorescent dye from bacterial cells overproducing efflux pump transporters in the presence and absence of compounds tested. The dye used in this assay, 1,2’ –dinaphthylamine (1,2’-dNA), is a substrate for the AcrAB-TolC efflux pump, and is strongly fluorescent upon incorporation into a phospholipid bilayer, although it is almost non-fluorescent in an aqueous solution [37, 38].
A likewise strong blocking efficacy (IE = 83 %) was also noticed for compound 12, while the lowest inhibitory effect was found for compound 13 (IE = 23 %).
The inhibitory activity of 5-arylideneimidazolone derivatives towards AcrAB-TolC mediated efflux of 1,2’-dNA was detected in K. aerogenes strain Ea-289 by using a real-time fluorometric method. In a first step, bacterial cells were loaded with the environment-sensitive fluorescent membrane probe, 1,2’-dNA, in the presence of the EPI carbonyl cyanide m-chlorophenylhydrazone (CCCP) which inactivated the pump by dissipating membrane potential. Next, compounds tested were added at the concentration of 100 µM and the efflux was energizing by automated injection of glucose at a dose of 50 µM. The fluorescence intensity was measured in a microplate reader (Tecan) with an excitation wavelength of λex = 370 nm and an emission wavelength of λem = 420 nm.

S. aureus R46-CC22 [2] = experiment: MIC reduction assay (antibiotic adjuvant), S. aureus R46-CC22; type: cell-based, Staphylococcus aureus
From the text: as §4, §2, §5

[3] = test system: K. aerogenes CM-64 (overexpression of AcrAB-TolC); experiment: MIC of compounds, K. aerogenes CM-64; type: cell-based; details: Klebsiella aerogenes, read-out: Minimal Inhibitory Concentration (MIC)
From the text: (§6) A subset of compounds, namely 7, 12–16, 19, 20, was also examined for the potential to increase the effectiveness of the antibiotics chloramphenicol, erythromycin, doxycycline, and the fluoroquinolone antibiotic norfloxacin, which all are substrates for AcrAB-TolC in K. aerogenes. In addition to strain Ea-289, the adjuvant-like effect of the compounds was investigated in strain CM-64, which also overexpresses the AcrAB-TolC efflux pump, although it has no changes in porin content, and in the Ea-289 derivatives, i.e., Ea-294 and Ea-308, which are devoid of AcrAB (Table S17, Supplementary).
as §2
(§7) MIC values of 5-arylideneimidazolone derivatives were determined following CLSI recommendations as in the methods described for S. aureus (Section 3.3.1).

S. aureus ATCC 25923 = experiment: MIC determination (microdilution), S. aureus ATCC 25923; type: cell-based, Staphylococcus aureus; details: Staphylococcus aureus
Procedure: as §2, §5

S. aureus MM-N072 = experiment: MIC of compounds, S. aureus MM-N072; type: cell-based; details: Staphylococcus aureus; MM-N072 (MSSA)
Procedure: as §1, §2, §3

K. aerogenes Ea-289 = experiment: MIC reduction assay (antibiotic adjuvant), K. aerogenes Ea-289; type: cell-based, Klebsiella aerogenes;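 also: compound at no more than one quarter of its own MIC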
Procedure: At first, MIC values of compounds were determined (Table S15, Supplementary). Next, their abilities to reduce MICs of the AcrAB-TolC substrates doxycycline (a tetracycline-class antibiotic) and erythromycin were studied (Table S16, Supplementary).
as §6, §5, §7

S. aureus R46-CC22 [4] = experiment: MIC of compounds, S. aureus R46-CC22; type: cell-based; details: Staphylococcus aureus; R46-CC22 (MRSA)
Procedure: as §1, §2, §3

S. aureus MM-O021 = experiment: MIC of compounds, S. aureus MM-O021; type: cell-based; details: Staphylococcus aureus; MM-O021 (MRSA)
Procedure: as §1, §2, §3

[5] = ATCC25923, unstarred values of column MIC value/no precipitation, read-out: MIC value
[6] = doxycycline, chloramphenicol, norfloxacin, erythromycin

SMILES | MIC (S. aureus R45-CC45; MRSA) | A (activity gain) (S. aureus USA300 LAC; ampicillin) | A (activity gain) (S. aureus USA300 LAC; ciprofloxacin) | A (activity gain) (S. aureus USA300 LAC; erythromycin) | Inhibition efficiency (IE) towards extrusion of 1,2'-dNA [1] | A (activity gain) (S. aureus R46-CC22 [2]; ampicillin) | A (activity gain) (S. aureus R46-CC22 [2]; ciprofloxacin) | MIC [3] | MIC (S. aureus ATCC 25923; ATCC25923, read-out: MIC value) | MIC (S. aureus ATCC 25923; [5]) | MIC (S. aureus MM-N072) | A (activity gain) (K. aerogenes Ea-289; doxycycline) | A (activity gain) (K. aerogenes Ea-289; [6]) | A (activity gain) (K. aerogenes Ea-289; erythromycin) | MIC (S. aureus R46-CC22 [4]) | MIC (S. aureus MM-O021) | MIC (S. aureus R45-CC45; R45-CC45 (MRSA))
NC1=N/C(=C\c2ccc(-c3ccccc3)cc2)C(=O)N1CCCN1CCOCC1 [Compound 15] | 125 to 250 µM | 2 | 1 | 1 | 72% | 2 | 1 | > 2000 µM | 125 µM | 31.2 to 250 µM | 250 µM | 1 | 1 | 1 | 250 µM | 250 to 500 µM | 
NC1=N/C(=C\c2ccc(-c3ccccc3)cc2)C(=O)N1CCN1CCOCC1 [Compound 14] |  | 1 | 1 | 1 | 57% | 2 | 1 | > 2000 µM |  | 31.2 to 250 µM | ≥ 500 µM | 1 | 1 | 1 | ≥ 500 µM | ≥ 500 µM | ≥ 500 µM
NC1=N/C(=C\c2ccc3c(c2)Cc2ccccc2-3)C(=O)N1CCCN1CCOCC1 [Compound 19] |  |  |  |  | 90% |  |  | > 2000 µM |  | 31.2 to 250 µM |  | 1 | 1 | 1 |  |  | 
NC1=N/C(=C\c2cccc(Oc3ccccc3)c2)C(=O)N1CCCN1CCOCC1 [Compound 16] |  | 1 | 1 | 1 |  | 1 | 1 | > 2000 µM |  | 31.2 to 250 µM | 250 µM |  |  |  | 250 to 500 µM | 250 µM | 250 µM
